Assay results as given in patent US20250042886A1, “BIS(HETERO)ARYL THIOETHER OXADIAZINES AS FUNGICIDAL COMPOUNDS” (Bayer Aktiengesellschaft, priority 2021, published 2025).

How the values were obtained:
[1] = Measurement of Log P values by HPLC on reversed phase columns (EEC directive 79/831 Annex V.A8); assay type: physicochemical; conditions: method [a]: LC-UV, acidic range, 0.1% formic acid in water and acetonitrile
[2] = system: Colletotrichum lindemuthianum; assay: Colletotrichum lindemuthianum in vitro cell test; assay type: cell-based; conditions: 144 h, liquid culture, 6 days incubation, read-out: efficacy (inhibition of fungal growth)
Description: B-7. Colletotrichum lindemuthianum In Vitro Cell Test • Solvent: DMSO • Culture medium: 14.6 g anhydrous D-glucose (VWR), 7.1 g Mycological Peptone (Oxoid), 1.4 g granulated Yeast Extract (Merck), QSP 1 liter • Inoculum: spores suspension Fungicides were solubilized in DMSO and the solution used to prepare the required range of concentrations. […] A spore suspension of C. lindemuthianum was prepared and diluted to the desired spore density. Fungicides were evaluated for their ability to inhibit spores germination and mycelium growth in liquid culture assay. The compounds were added in the desired concentration to the culture medium with spores. After 6 days incubation, fungi-toxicity of compounds was determined by spectrometric measurement of mycelium growth. Inhibition of fungal growth was determined by comparing the absorbance values in wells containing the fungicides with the absorbance in control wells without fungicides.

[3] = system: Botrytis cinerea; assay: Botrytis cinerea in vitro cell test; assay type: cell-based; conditions: 144 h, 50 μMol/l of active ingredient, liquid culture, 6 days incubation, read-out: efficacy (inhibition of fungal growth)
Description: B-9. Botrytis cinerea In Vitro Cell Test • Solvent: DMSO • Culture medium: 1 g KH2PO4 (VWR), 1 g K2HPO4 (VWR), 0.5 g Urea (VWR), 3 g KNO3 (Prolabo), 10 g saccharose (VWR), 0.5 g MgSO4, 7H2O (Sigma), 0.07 g CaCl2, 2H2O (Prolabo), 0.2 mg MnSO4, H2O (Sigma), 0.6 mg CuSO4, 5H2O (Sigma), 7.9 mg ZnSO4, 7H2O (Sigma), 0.1 mg H3BO3 (Merck), 0.14 mg NaMoO4, 2H2O (Sigma), 2 mg thiamine (Sigma), 0.1 mg biotine (VWR), 4 mg FeSO4, 7H2O (Sigma), QSP 1 liter • Inoculum: spore suspension Fungicides were solubilized in DMSO and the solution used to prepare the required range of concentrations. […] A spore suspension of B. cinerea was prepared and diluted to the desired spore density. Fungicides were evaluated for their ability to inhibit spore germination and mycelium growth in liquid culture assay. The compounds were added in the desired concentration to the culture medium with spores. After 6 days incubation, fungi-toxicity of compounds was determined by spectrometric measurement of mycelium growth. Inhibition of fungal growth was determined by comparing the absorbance values in wells containing the fungicides with the absorbance in control wells without fungicides.

[4] = Table 1, compounds of formula (I)
[5] = Table 3, intermediates of formula (27)

Row | Compound | chromatographic logP [1, 4] | also measured
1 | FC(F)(F)Oc1cccc(Sc2nnc(Cl)cc2C2=NOC[C@H](Cc3ccc(Cl)cc3Cl)N2)c1 (racemic) [Compound I-019] | 4.99 | –
2 | FC(F)(F)Oc1cccc(Sc2cnc(Cl)cc2C2=NOC[C@H](Cc3ccc(Cl)cc3Cl)N2)c1 (racemic) [Compound I-020] | 5.13 | inhibition at 20 ppm ([2]; 20 ppm of active ingredient): 90 to 100%
3 | Cc1cc([C@H]2CON=C(c3c(Sc4cccc5ccccc45)nnc(C)c3C)N2)c(C)s1 (racemic) [Compound I-037] | 3.67 | –
4 | Cc1cc([C@@H]2CON=C(c3c(Sc4ccc(Cl)cc4Cl)nnc(C)c3C)N2)c(C)s1 (racemic) [Compound I-039] | 3.87 | –
5 | Cc1cc([C@H]2CON=C(c3c(Sc4ccncc4)nnc(C)c3C)N2)c(C)s1 (racemic) [Compound I-041] | 1.58 | –
6 | Cc1ccc(C)c(Sc2nnc(C)c(C)c2C2=NOC[C@H](c3ccc(C)s3)N2)c1 (racemic) [Compound I-043] | 3.28 | –
7 | CCOc1cccc(Sc2nnc(C)c(C)c2C2=NOC[C@@H](c3cc(C)sc3C)N2)c1 (racemic) [Compound I-046] | 3.44 | inhibition at 50 µM ([2]; 50 μMol/l of active ingredient): 80 to 89%
8 | Cc1cc([C@@H]2CON=C(c3c(Sc4ccc(F)cc4F)nnc(C)c3C)N2)c(C)s1 (racemic) [Compound I-051] | 3.32 | –
9 | Cc1ccc(Sc2nnc3ccccc3c2C2=NOC[C@H](c3ccc(C)s3)N2)c(C)c1 (racemic) [Compound I-052] | 3.83 | –
10 | Cc1ccc([C@H]2CON=C(c3c(Sc4cc(Cl)ccc4Cl)nnc(C)c3C)N2)s1 (racemic) [Compound I-053] | 3.4 | –
11 | COc1ccc(Sc2nnc(C)c(C)c2C2=NOC[C@@H](c3ccc(C)s3)N2)cc1 (racemic) [Compound I-054] | 2.76 | –
12 | Cc1ccc(C)c(Sc2nnc(C)c(C)c2C2=NOC[C@H](c3cc(C)sc3C)N2)c1 (racemic) [Compound I-057] | 3.66 | –
13 | Cc1ccc([C@H]2CON=C(c3c(Sc4ccc(Cl)cc4Cl)nnc4ccccc34)N2)s1 (racemic) [Compound I-058] | 3.96 | –
14 | Cc1cc([C@H]2CON=C(c3c(Sc4cc(Cl)cc(Cl)c4)nnc(C)c3C)N2)c(C)s1 (racemic) [Compound I-061] | 4.04 | inhibition at 50 µM [3]: 70 to 79%
15 | Cc1ccc([C@@H]2CON=C(c3c(Sc4ccc(F)cc4)nnc(C)c3C)N2)s1 (racemic) [Compound I-063] | 2.82 | inhibition at 50 µM [3]: 70 to 79%
16 | Cc1ccc([C@H]2CON=C(c3c(Sc4ccc(Cl)cc4)nnc(C)c3C)N2)s1 (racemic) [Compound I-064] | 3.14 | –
17 | Cc1ccc([C@@H]2CON=C(c3c(Sc4ccc(C(C)(C)C)cc4)nnc(C)c3C)N2)s1 (racemic) [Compound I-065] | 3.95 | –
18 | Cc1ccc([C@H]2CON=C(c3c(Sc4ccc(Cl)cc4)nnc4ccccc34)N2)s1 (racemic) [Compound I-070] | 3.62 | –
19 | Cc1ccc([C@H]2CON=C(c3c(Sc4ccncc4)nnc(C)c3C)N2)s1 (racemic) [Compound I-072] | 1.3 | –
20 | Cc1ccc([C@@H]2CON=C(c3c(Sc4ccc(F)cc4F)nnc(C)c3C)N2)s1 (racemic) [Compound I-073] | 2.95 | inhibition at 50 µM [3]: 80 to 89%
21 | Cc1ccc([C@@H]2CON=C(c3c(Sc4ccc(Cl)cc4Cl)nnc(C)c3C)N2)s1 (racemic) [Compound I-075] | 3.45 | –
22 | Cc1cc([C@@H]2CON=C(c3c(Sc4ccc(C(F)(F)F)cc4)nnc(C)c3C)N2)c(C)s1 (racemic) [Compound I-076] | 3.71 | –
23 | COc1ccc(Sc2nnc3ccccc3c2C2=NOC[C@H](c3ccc(C)s3)N2)cc1 (racemic) [Compound I-077] | 3.22 | –
24 | Cc1cc([C@@H]2CON=C(c3c(Sc4ccc(F)cc4)nnc(C)c3C)N2)c(C)s1 (racemic) [Compound I-081] | 3.18 | –
25 | Cc1ccc([C@@H]2CON=C(c3c(Sc4ccc(C)c(Cl)c4)nnc(C)c3C)N2)s1 (racemic) [Compound I-082] | 3.47 | inhibition at 50 µM [3]: 90 to 100%
26 | Cc1ccc(Sc2nnc(C)c(C)c2C2=NOC[C@@H](c3cc(C)sc3C)N2)c(C)c1 (racemic) [Compound I-087] | 3.68 | inhibition at 50 µM [3]: 70 to 79%

Row | Compound | chromatographic logP [1, 4] | also measured
27 | Cc1ccc([C@H]2CON=C(c3c(Sc4cccc5ccccc45)nnc(C)c3C)N2)s1 (racemic) [Compound I-092] | 3.3 | –
28 | Cc1ccc([C@H]2CON=C(c3c(Sc4ccc(C)c(C)c4)nnc(C)c3C)N2)s1 (racemic) [Compound I-093] | 3.26 | inhibition at 50 µM [3]: 90 to 100%
29 | Cc1ccc(Sc2nnc(C)c(C)c2C2=NOC[C@@H](c3ccc(C)s3)N2)cc1 (racemic) [Compound I-094] | 3.01 | –
30 | Cc1ccc([C@H]2CON=C(c3c(Sc4cc(Cl)ccc4Cl)nnc4ccccc34)N2)s1 (racemic) [Compound I-096] | 3.88 | –
31 | Cc1ccc([C@H]2CON=C(c3c(Sc4ccc5ccccc5c4)nnc4ccccc34)N2)s1 (racemic) [Compound I-098] | 3.81 | –
32 | Cc1ccc(Sc2nnc3ccccc3c2C2=NOC[C@H](c3ccc(C)s3)N2)cc1 (racemic) [Compound I-101] | 3.49 | –
33 | Cc1ccc([C@H]2CON=C(c3c(Sc4ccccn4)nnc(C)c3C)N2)s1 (racemic) [Compound I-105] | 2.03 | –
34 | Cc1cc([C@H]2CON=C(c3c(Sc4ccc(Cl)c(Cl)c4)nnc(C)c3C)N2)c(C)s1 (racemic) [Compound I-107] | 3.92 | inhibition at 50 µM [3]: 80 to 89%
35 | Cc1ccc([C@H]2CON=C(c3c(Sc4ccc(OC(F)(F)F)cc4)nnc4ccccc34)N2)s1 (racemic) [Compound I-112] | 3.96 | inhibition at 50 µM [3]: 70 to 79%
36 | Cc1ccc([C@H]2CON=C(c3c(Sc4ccc(C(C)(C)C)cc4)nnc4ccccc34)N2)s1 (racemic) [Compound I-113] | 4.43 | –
37 | Cc1ccc([C@H]2CON=C(c3c(Sc4ccccc4Cl)nnc(C)c3C)N2)s1 (racemic) [Compound I-114] | 2.93 | inhibition at 50 µM [3]: 90 to 100%
38 | Cc1ccc([C@H]2CON=C(c3c(Sc4cc(Cl)cc(Cl)c4)nnc(C)c3C)N2)s1 (racemic) [Compound I-115] | 3.68 | inhibition at 50 µM [3]: 90 to 100%
39 | Cc1ccc([C@@H]2CON=C(c3c(Sc4ccc(OC(F)(F)F)cc4)nnc(C)c3C)N2)s1 (racemic) [Compound I-116] | 3.52 | –
40 | Cc1cc([C@@H]2CON=C(c3c(Sc4ccc(OC(F)(F)F)cc4)nnc(C)c3C)N2)c(C)s1 (racemic) [Compound I-119] | 3.87 | inhibition at 50 µM [3]: 70 to 79%
41 | Cc1ccc([C@H]2CON=C(c3c(Sc4cc(Cl)cc(Cl)c4)nnc4ccccc34)N2)s1 (racemic) [Compound I-120] | 4.18 | –
42 | Cc1ccc(C)c(Sc2nnc3ccccc3c2C2=NOC[C@H](c3ccc(C)s3)N2)c1 (racemic) [Compound I-123] | 3.8 | –
43 | Cc1ccc([C@@H]2CON=C(c3c(Sc4ccc(C(F)(F)F)cc4)nnc(C)c3C)N2)s1 (racemic) [Compound I-128] | 3.36 | –
44 | Cc1ccc([C@H]2CON=C(c3c(Sc4ccc(C(F)(F)F)cc4)nnc4ccccc34)N2)s1 (racemic) [Compound I-130] | 3.81 | inhibition at 50 µM [3]: 70 to 79%
45 | Cc1cc([C@@H]2CON=C(c3c(Sc4ccc(C(C)(C)C)cc4)nnc(C)c3C)N2)c(C)s1 (racemic) [Compound I-132] | 4.32 | –
46 | Cc1cc([C@H]2CON=C(c3c(Sc4ccc(Cl)cc4)nnc(C)c3C)N2)c(C)s1 (racemic) [Compound I-134] | 3.49 | –
47 | Cc1ccc([C@H]2CON=C(c3c(Sc4ccc(Cl)c(Cl)c4)nnc(C)c3C)N2)s1 (racemic) [Compound I-137] | 3.55 | inhibition at 50 µM [3]: 90 to 100%
48 | Cc1ccc([C@@H]2CON=C(c3c(Sc4ccc5ccccc5c4)nnc(C)c3C)N2)s1 (racemic) [Compound I-138] | 3.33 | –
49 | C=CCON=C(N)c1c(Br)nnc(C)c1C [Compound 27-01] | – | chromatographic logP [1, 5]: 1.28
50 | C=CCON=C(N)c1c(Br)nnc2ccccc12 [Compound 27-02] | – | chromatographic logP [1, 5]: 1.81
51 | NC(=NO)c1c(Br)nnc2ccccc12 [Compound 29-02] | – | chromatographic logP ([1]; Table 4, intermediates of formula (29)): 0.31
